The target of this test is T1, AChE enzyme from electrophorus electricus (eeAChE) (Electrophorus electricus, UniProt O42275).
T1 construct: purchased Merck C3389
Nature of the test: biochemical. The following applies: mean ± SEM from three independent experiments. How it is done:
Donepezil was used as a positive control.
AChE activity was measured by the […] using AChE enzyme from electrophorus electricus (eeAChE) (C3389, Merck, Kenilworth, NJ, USA). AChE solution (2 U/mL) was prepared with 0.1 M phosphate buffer (pH 8.0) firstly. Varied concentrations of test compounds (20 μL), 1 mM 5′-dithiobis (2-nitrobenzoic acid) (DTNB) solution (100 μL), and AChE solution (40 μL) were added in order to each well of a 96-well plate. After incubation for 15 min at 37 °C, the reaction was initiated by adding 20 μL of acetylthiocholine iodide (1 mM) to the mixed solution. The absorbance of each plate was instantly measured at 405 nm using a microplate reader. The inhibition of each compound was estimated using the formula (1−Ai/Ac) × 100, where Ai and Ac represent the absorbance of AChE in the presence and absence of inhibitors, respectively. Each experiment was replicated three times. Plotting curves of log concentration via percentage of inhibition, the IC50 values of all tested compounds were graphically analyzed (Graph Pad Prism 8.0).

T1 sequence (O42275 24-633): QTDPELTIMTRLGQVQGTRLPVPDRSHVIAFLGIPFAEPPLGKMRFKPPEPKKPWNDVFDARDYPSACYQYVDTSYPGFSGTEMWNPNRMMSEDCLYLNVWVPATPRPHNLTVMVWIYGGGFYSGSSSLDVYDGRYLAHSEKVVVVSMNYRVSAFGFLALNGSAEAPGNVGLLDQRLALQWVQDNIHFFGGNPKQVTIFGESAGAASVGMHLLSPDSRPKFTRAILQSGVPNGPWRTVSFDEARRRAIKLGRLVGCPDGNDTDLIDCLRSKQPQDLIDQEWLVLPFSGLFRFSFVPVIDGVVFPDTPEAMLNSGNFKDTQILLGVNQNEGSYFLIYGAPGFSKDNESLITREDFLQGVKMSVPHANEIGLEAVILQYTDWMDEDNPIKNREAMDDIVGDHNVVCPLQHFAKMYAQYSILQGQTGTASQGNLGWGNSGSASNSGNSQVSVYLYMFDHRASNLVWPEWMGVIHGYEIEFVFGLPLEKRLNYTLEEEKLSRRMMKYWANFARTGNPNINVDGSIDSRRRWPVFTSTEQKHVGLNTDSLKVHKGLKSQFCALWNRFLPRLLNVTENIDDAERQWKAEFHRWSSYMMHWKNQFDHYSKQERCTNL

Turning to `COc1cc2c(cc1OC)C(=O)/C(=C/c1cc[n+](Cc3ccccc3F)cc1C(C)=O)OC2` [10b, (Z)-3-Acetyl-4-((6,7-dimethoxy-4-oxoisochroman-3-ylidene)methyl)-1-(2-fluorobenzyl)pyridin-1-ium Bromide], the half-inhibitory concentration (IC50) is 3.32 ± 0.21 nM.

With `COc1cc2c(cc1OC)C(=O)/C(=C/c1cc[n+](Cc3cccc(F)c3)cc1C(C)=O)OC2` [10c, (Z)-3-Acetyl-4-((6,7-dimethoxy-4-oxoisochroman-3-ylidene)methyl)-1-(3-fluorobenzyl)pyridin-1-ium Bromide], half-maximal inhibition (IC50) was put at 4.03 ± 0.23 nM.

Take `COc1cc2c(cc1OC)C(=O)/C(=C/c1cc[n+](Cc3ccc(F)cc3)cc1C(C)=O)OC2` [10d, (Z)-3-Acetyl-4-((6,7-dimethoxy-4-oxoisochroman-3-ylidene)methyl)-1-(4-fluorobenzyl)pyridin-1-ium Bromide]: half-maximal inhibition (IC50) required 7.69 ± 0.35 nM.

For the compound `COc1cc2c(cc1OC)C(=O)/C(=C/c1cc[n+](Cc3ccccc3Cl)cc1C(C)=O)OC2` [10e, (Z)-3-Acetyl-1-(2-chlorobenzyl)-4-((6,7-dimethoxy-4-oxoisochroman-3-ylidene)methyl)pyridin-1-ium Bromide], the half-inhibitory concentration (IC50) was found to be 5.86 ± 0.86 nM.

`COc1cc2c(cc1OC)C(=O)/C(=C/c1cc[n+](Cc3cccc(Cl)c3)cc1C(C)=O)OC2` [10f, (Z)-3-Acetyl-1-(3-chlorobenzyl)-4-((6,7-dimethoxy-4-oxoisochroman-3-ylidene)methyl)pyridin-1-ium Bromide] registered a half-inhibitory concentration (IC50) of 10.3 ± 1.08 nM.

Compound `COc1cc2c(cc1OC)C(=O)/C(=C/c1cc[n+](Cc3ccc(Cl)cc3)cc1C(C)=O)OC2` [10g, (Z)-3-Acetyl-1-(4-chlorobenzyl)-4-((6,7-dimethoxy-4-oxoisochroman-3-ylidene)methyl)pyridin-1-ium Bromide] registered an IC50 of 67.3 ± 2.68 nM.

Compound `COc1cc2c(cc1OC)C(=O)/C(=C/c1cc[n+](Cc3ccccc3Br)cc1C(C)=O)OC2` [10h, (Z)-3-Acetyl-1-(2-bromobenzyl)-4-((6,7-dimethoxy-4-oxoisochroman-3-ylidene)methyl)pyridin-1-ium Bromide] gave an IC50 of 6.22 ± 0.05 nM.

Compound `COc1cc2c(cc1OC)C(=O)/C(=C/c1cc[n+](Cc3cccc(Br)c3)cc1C(C)=O)OC2` [10i, (Z)-3-Acetyl-1-(3-bromobenzyl)-4-((6,7-dimethoxy-4-oxoisochroman-3-ylidene)methyl)pyridin-1-ium Bromide] showed an IC50 of 11 ± 0.82 nM.

Regarding `COc1cc2c(cc1OC)C(=O)/C(=C/c1cc[n+](Cc3ccc(Br)cc3)cc1C(C)=O)OC2` [10j, (Z)-3-Acetyl-1-(4-bromobenzyl)-4-((6,7-dimethoxy-4-oxoisochroman-3-ylidene)methyl)pyridin-1-ium Bromide], 75.7 ± 3.18 nM corresponded to half-maximal inhibition (IC50).

In turn, `COc1cc2c(cc1OC)C(=O)/C(=C/c1cc[n+](Cc3ccccc3C)cc1C(C)=O)OC2` [10k, (Z)-3-Acetyl-4-((6,7-dimethoxy-4-oxoisochroman-3-ylidene)methyl)-1-(2-methylbenzyl)pyridin-1-ium Bromide] returned an IC50 of 4.8 ± 0.26 nM.

As for `COc1cc2c(cc1OC)C(=O)/C(=C/c1cc[n+](Cc3cccc(C)c3)cc1C(C)=O)OC2` [10l, (Z)-3-Acetyl-4-((6,7-dimethoxy-4-oxoisochroman-3-ylidene)methyl)-1-(3-methylbenzyl)pyridin-1-ium Bromide], the IC50 stood at 6.61 ± 0.81 nM.

Compound `COc1cc2c(cc1OC)C(=O)/C(=C/c1cc[n+](Cc3ccc(C)cc3)cc1C(C)=O)OC2` [10m, (Z)-3-Acetyl-4-((6,7-dimethoxy-4-oxoisochroman-3-ylidene)methyl)-1-(4-methylbenzyl)pyridin-1-ium Bromide] displayed an IC50 of 54.1 ± 3.22 nM.

`COc1cc2c(cc1OC)C(=O)/C(=C/c1cc[n+](Cc3ccccc3[N+](=O)[O-])cc1C(C)=O)OC2` [10n, (Z)-3-Acetyl-4-((6,7-dimethoxy-4-oxoisochroman-3-ylidene)methyl)-1-(2-nitrobenzyl)pyridin-1-ium Bromide] registered an IC50 of 13.6 ± 0.72 nM.

For the compound `COc1cc2c(cc1OC)C(=O)/C(=C/c1cc[n+](Cc3cccc([N+](=O)[O-])c3)cc1C(C)=O)OC2` [10o, (Z)-3-Acetyl-4-((6,7-dimethoxy-4-oxoisochroman-3-ylidene)methyl)-1-(3-nitrobenzyl)pyridin-1-ium Bromide], the IC50 was 22.4 ± 1.25 nM.

Regarding `COc1cc2c(cc1OC)C(=O)/C(=C/c1cc[n+](Cc3ccc([N+](=O)[O-])cc3)cc1C(C)=O)OC2` [10p, (Z)-3-Acetyl-4-((6,7-dimethoxy-4-oxoisochroman-3-ylidene)methyl)-1-(4-nitrobenzyl)pyridin-1-ium Bromide], the 50% inhibitory concentration (IC50) came out at 129 ± 2.68 nM.

Compound `COc1cc2c(cc1OC)C(=O)/C(=C/c1cc[n+](Cc3ccccc3C(F)(F)F)cc1C(C)=O)OC2` [10q, (Z)-3-Acetyl-4-((6,7-dimethoxy-4-oxoisochroman-3-ylidene)methyl)-1-(2-(trifluoromethyl)benzyl)pyridin-1-ium Bromide] yielded an IC50 of 18.9 ± 1.16 nM.

As for `COc1cc2c(cc1OC)C(=O)/C(=C/c1cc[n+](Cc3cccc(C(F)(F)F)c3)cc1C(C)=O)OC2` [10r, (Z)-3-Acetyl-4-((6,7-dimethoxy-4-oxoisochroman-3-ylidene)methyl)-1-(3-(trifluoromethyl)benzyl)pyridin-1-ium Bromide], the IC50 was 25.3 ± 2.2 nM.

Compound `COc1cc2c(cc1OC)C(=O)/C(=C/c1cc[n+](Cc3ccc(C(F)(F)F)cc3)cc1C(C)=O)OC2` [10s, (Z)-3-Acetyl-4-((6,7-dimethoxy-4-oxoisochroman-3-ylidene)methyl)-1-(4-(trifluoromethyl)benzyl)pyridin-1-ium Bromide] had an IC50 of 326 ± 9.01 nM.

The compound `COc1cc2c(cc1OC)C(=O)/C(=C/c1cc[n+](Cc3ccccc3)cc1C(N)=O)OC2` [13a, (Z)-1-Benzyl-3-carbamoyl-4-((6,7-dimethoxy-4-oxoisochroman-3-ylidene)methyl)pyridin-1-ium Bromide] showed a concentration for half-maximal inhibition (IC50) of 8.63 ± 0.06 nM.

With `COc1cc2c(cc1OC)C(=O)/C(=C/c1cc[n+](Cc3cccc(F)c3)cc1C(N)=O)OC2` [13c, (Z)-3-Carbamoyl-4-((6,7-dimethoxy-4-oxoisochroman-3-ylidene)methyl)-1-(3-fluorobenzyl)pyridin-1-ium Bromide], the IC50 came out at 6.02 ± 0.08 nM.

In turn, `COc1cc2c(cc1OC)C(=O)/C(=C/c1cc[n+](Cc3ccc(F)cc3)cc1C(N)=O)OC2` [13d, (Z)-3-Carbamoyl-4-((6,7-dimethoxy-4-oxoisochroman-3-ylidene)methyl)-1-(4-fluorobenzyl)pyridin-1-ium Bromide] showed an IC50 of 8.25 ± 0.13 nM.

Regarding `COc1cc2c(cc1OC)C(=O)/C(=C/c1cc[n+](Cc3ccccc3Cl)cc1C(N)=O)OC2` [13e, (Z)-3-Carbamoyl-1-(2-chlorobenzyl)-4-((6,7-dimethoxy-4-oxoisochroman-3-ylidene)methyl)pyridin-1-ium Bromide], the midpoint of inhibition, the IC50, lay at 17.6 ± 0.3 nM.

Consider `COc1cc2c(cc1OC)C(=O)/C(=C/c1cc[n+](Cc3cccc(Cl)c3)cc1C(N)=O)OC2` [13f, (Z)-3-Carbamoyl-1-(3-chlorobenzyl)-4-((6,7-dimethoxy-4-oxoisochroman-3-ylidene)methyl)pyridin-1-ium Bromide], for which the half-maximal inhibitory concentration (IC50) amounted to 26.7 ± 0.28 nM.

`COc1cc2c(cc1OC)C(=O)/C(=C/c1cc[n+](Cc3ccc(Cl)cc3)cc1C(N)=O)OC2` [13g, (Z)-3-Carbamoyl-1-(4-chlorobenzyl)-4-((6,7-dimethoxy-4-oxoisochroman-3-ylidene)methyl)pyridin-1-ium Bromide] registered a half-maximal inhibitory concentration (IC50) of 188 ± 4.78 nM.

Compound `COc1cc2c(cc1OC)C(=O)/C(=C/c1cc[n+](Cc3ccccc3Br)cc1C(N)=O)OC2` [13h, (Z)-1-(2-Bromobenzyl)-3-carbamoyl-4-((6,7-dimethoxy-4-oxoisochroman-3-ylidene)methyl)pyridin-1-ium Bromide] gave an IC50 of 21.7 ± 0.32 nM.

Compound `COc1cc2c(cc1OC)C(=O)/C(=C/c1cc[n+](Cc3cccc(Br)c3)cc1C(N)=O)OC2` [13i, (Z)-1-(3-Bromobenzyl)-3-carbamoyl-4-((6,7-dimethoxy-4-oxoisochroman-3-ylidene)methyl)pyridin-1-ium Bromide] gave a 50% inhibitory concentration (IC50) of 38.1 ± 0.92 nM.

Compound `COc1cc2c(cc1OC)C(=O)/C(=C/c1cc[n+](Cc3ccc(Br)cc3)cc1C(N)=O)OC2` [13j, (Z)-1-(4-Bromobenzyl)-3-carbamoyl-4-((6,7-dimethoxy-4-oxoisochroman-3-ylidene)methyl)pyridin-1-ium Bromide] gave an IC50 of 422 ± 5.92 nM.

For `COc1cc2c(cc1OC)C(=O)/C(=C/c1cc[n+](Cc3ccccc3C)cc1C(N)=O)OC2` [13k, (Z)-3-Carbamoyl-4-((6,7-dimethoxy-4-oxoisochroman-3-ylidene)methyl)-1-(2-methylbenzyl)pyridin-1-ium Bromide], the IC50 amounted to 12.1 ± 0.9 nM.

Turning to `COc1cc2c(cc1OC)C(=O)/C(=C/c1cc[n+](Cc3cccc(C)c3)cc1C(N)=O)OC2` [13l, (Z)-3-Carbamoyl-4-((6,7-dimethoxy-4-oxoisochroman-3-ylidene)methyl)-1-(3-methylbenzyl)pyridin-1-ium Bromide], the 50% inhibitory concentration (IC50) was 16.26 ± 0.12 nM.

`COc1cc2c(cc1OC)C(=O)/C(=C/c1cc[n+](Cc3ccc(C)cc3)cc1C(N)=O)OC2` [13m, (Z)-3-Carbamoyl-4-((6,7-dimethoxy-4-oxoisochroman-3-ylidene)methyl)-1-(4-methylbenzyl)pyridin-1-ium Bromide] gave an IC50 of 42.47 ± 0.25 nM.

In the case of `COc1cc2c(cc1OC)C(=O)/C(=C/c1cc[n+](Cc3ccccc3C(F)(F)F)cc1C(N)=O)OC2` [13n, (Z)-3-Carbamoyl-4-((6,7-dimethoxy-4-oxoisochroman-3-ylidene)methyl)-1-(2-(trifluoromethyl)benzyl)pyridin-1-ium Bromide], half-maximal inhibition (IC50) was put at 30.7 ± 0.71 nM.

The values are drawn from publication PMC9145193 (Molecules, 2022).
